# Measurements as given in patent publication US20030157712A1, “Methods for determining cell responses through EphB receptors” (priority 1997, published 2003).
# Key:
# [1] = system: human renal microvascular endothelial cells; assay: Solid phase cell attachment assay (HRMEC); type: cell-based
# Procedure: Solid phase cell attachment assays. Forty-eight-well plates (Falcon) were coated with a layer of nitrocellulose (Schleicher & Schuell) and allowed to air dry as described (47). Coated wells were incubated overnight at 4° C. with PBS containing matrix proteins at the indicated concentrations alone (no addition, NA) or in combination with dimeric EphrinB1/Fc. Two hours prior to assay, wells were washed twice then blocked at 37° C. with 1% BSA. Serum starved cells were harvested in 2 mM EDTA in PBS (HEK293) or recovered by trypsinization (HRMEC), washed twice in serum free medium containing 1% BSA, then plated at a density of 0.7-1×10^5 cells per well. After incubation at 37° C. for 1 hour (or as specified), unattached cells were dislodged by 5 brisk slaps of the plate on a horizontal surface. Wells were gently washed with PBS until cells were […] to albumin-coated wells. Adherent cells were fixed with 2% glutaraldehyde, stained with 0.5% crystal violet (in EtOH), and quantified by OD reading at 570 nm. In experiments using competitive peptides or blocking antibodies, cells were preincubated with the indicated peptides (100 μM) or antibodies (10 μg/ml) for 15 min at RT before plating. Results representative of three independent experiments are given as OD values and represent the mean of duplicate or triplicate wells±SEM. […]
# HRMEC = assay: Endothelial assembly into capillary-like structures (HRMEC); type: cell-based, human; conditions: HRMEC on Matrigel, two dimensional in vitro assay, 8 h
# Procedure: Endothelial assembly into capillary-like structures. Twelve well plates (Falcon) were coated with thin layers of Matrigel. HRMEC were plated at a density of 4×10^4 cells/well in DME containing 1% fetal bovine serum. Indicated agonists, control peptides, alone, or in combination with the EphB1/Fc antagonist (1000 ng ml^−1) (FIG. 5) were added at the time of plating. Cells were incubated at 37° C. for 8 h and photographed using phase microscopy (magnification 100×) (Diaphot-TMD, Nikon).
molecule,measurement,setting,value
fibrinogen [reference compound],threshold surface density of adsorbed matrix protein required to promote attachment,[1]; nitrocellulose surface,approximately 1 ug/cm^2
"CCCCCCCCCCCCCC(=O)O[C@@H]1[C@@H](C)[C@@]2(O)[C@@H](C=C(CO)C[C@]3(O)C(=O)C(C)=C[C@@H]23)[C@@H]2C(C)(C)[C@]12OC(C)=O [phorbol myristate acetate, reference compound]",endothelial capillary-like assembly,HRMEC,stimulated
"GRGDSPK [RGD peptide, reference compound]",support of the ephrin-B1 induced increase in endothelial attachment,[1]; peptide-coated 48-well plates,sufficient
